Measurements taken from ChEMBL document CHEMBL1649393, “Synthesis and antimicrobial activity of thiosemicarbazides, s-triazoles and their Mannich bases bearing 3-chlorophenyl moiety” (2011).
Values after ≈ are worked out from the molar mass of the structure shown.

Columns and labels:
Type in all cases: functional
[1] = tested on: Bacillus subtilis; experiment: Antimicrobial activity against Bacillus subtilis ATCC […] after 18 hrs by broth microdilution method
[2] = tested on: Staphylococcus epidermidis; experiment: Antimicrobial activity against Staphylococcus epidermidis ATCC 12228 after 18 hrs by broth microdilution method; conditions: ATCC 12228, 18 h
[3] = tested on: Bacillus cereus; experiment: Antimicrobial activity against Bacillus cereus ATCC 10876 after 18 hrs by broth microdilution method; conditions: ATCC 10876, 18 h
[4] = tested on: Staphylococcus aureus; experiment: Antimicrobial activity against Staphylococcus aureus ATCC 25923 after 18 hrs by broth microdilution method; conditions: ATCC 25923, 18 h
[5] = tested on: Staphylococcus aureus; experiment: Antimicrobial activity against Staphylococcus aureus ATCC 6538 after 18 hrs by broth microdilution method; conditions: ATCC 6538, 18 h
[6] = tested on: Micrococcus luteus; experiment: Antimicrobial activity against Micrococcus luteus ATCC 10240 after 18 hrs by broth microdilution method; conditions: ATCC 10240, 18 h
[7] = tested on: Klebsiella pneumoniae; experiment: Antimicrobial activity against Klebsiella pneumoniae ATCC 13883 assessed as >99.9 % reduction in CFU after 18 hrs by broth microdilution method; conditions: ATCC 13883, 18 h, read-out: MBC
[8] = tested on: Proteus mirabilis; experiment: Antimicrobial activity against Proteus mirabilis ATCC 12453 assessed as >99.9 % reduction in CFU after 18 hrs by broth microdilution method; conditions: ATCC 12453, 18 h, read-out: MBC
[9] = tested on: Klebsiella pneumoniae; experiment: Antimicrobial activity against Klebsiella pneumoniae ATCC 13883 after 18 hrs by broth microdilution method; conditions: ATCC 13883, 18 h
[10] = tested on: Bacillus cereus; experiment: Antimicrobial activity against Bacillus cereus ATCC 10876 assessed as >99.9 % reduction in CFU after 18 hrs by broth microdilution method; conditions: ATCC 10876, 18 h
[11] = tested on: Staphylococcus aureus; experiment: Antimicrobial activity against Staphylococcus aureus ATCC 6538 assessed as >99.9 % reduction in CFU after 18 hrs by broth microdilution method; conditions: ATCC 6538, 18 h
[12] = tested on: Proteus mirabilis; experiment: Antimicrobial activity against Proteus mirabilis ATCC 12453 after 18 hrs by broth microdilution method; conditions: ATCC 12453, 18 h, read-out: MIC
[13] = tested on: Bacillus subtilis; experiment: Antimicrobial activity against Bacillus subtilis ATCC […] assessed as >99.9 % reduction in CFU after 18 hrs by broth microdilution method
[14] = tested on: Staphylococcus aureus; experiment: Antimicrobial activity against Staphylococcus aureus ATCC 25923 assessed as >99.9 % reduction in CFU after 18 hrs by broth microdilution method; conditions: ATCC 25923, 18 h
[15] = tested on: Escherichia coli; experiment: Antimicrobial activity against Escherichia coli ATCC 25922 after 18 hrs by broth microdilution method; conditions: ATCC 25922, 18 h
[16] = tested on: Escherichia coli; experiment: Antimicrobial activity against Escherichia coli ATCC 25922 assessed as >99.9 % reduction in CFU after 18 hrs by broth microdilution method; conditions: ATCC 25922, 18 h
[17] = tested on: Staphylococcus epidermidis; experiment: Antimicrobial activity against Staphylococcus epidermidis ATCC 12228 assessed as >99.9 % reduction in CFU after 18 hrs by broth microdilution method; conditions: ATCC 12228, 18 h
[18] = tested on: Micrococcus luteus; experiment: Antimicrobial activity against Micrococcus luteus ATCC 10240 assessed as >99.9 % reduction in CFU after 18 hrs by broth microdilution method; conditions: ATCC 10240, 18 h

Compound	MIC [1]	MIC [2]	MIC [3]	MIC [4]	MIC [5]	MIC [6]	MBC [7]	MBC [8]	MIC [9]	MBC [10]	MBC [11]	MIC [12]	MBC [13]	MBC [14]	MIC [15]	MBC [16]	MBC [17]	MBC [18]
O=C(NNC(=S)Nc1ccc(I)cc1)c1cccc(Cl)c1	31.2 mg/L (≈ 72.4 µM)	31.2 mg/L (≈ 72.4 µM)	15.6 mg/L (≈ 36.2 µM)	31.2 mg/L (≈ 72.4 µM)	31.2 mg/L (≈ 72.4 µM)	31.2 mg/L (≈ 72.4 µM)	–	–	–	–	–	–	–	–	–	–	–	–
Cc1ccc(-n2c(-c3cccc(Cl)c3)nn(CN3CCCC3)c2=S)cc1	31.2 mg/L (≈ 81.2 µM)	125 mg/L (≈ 325 µM)	125 mg/L (≈ 325 µM)	31.2 mg/L (≈ 81.2 µM)	62.5 mg/L (≈ 162 µM)	62.5 mg/L (≈ 162 µM)	> 1000 mg/L	> 1000 mg/L	> 1000 mg/L	> 1000 mg/L	> 1000 mg/L	> 1000 mg/L	1000 mg/L (≈ 2600 µM)	> 1000 mg/L	> 1000 mg/L	> 1000 mg/L	> 1000 mg/L	> 1000 mg/L
Fc1cccc(F)c1-n1c(-c2cccc(Cl)c2)n[nH]c1=S	500 mg/L (≈ 1540 µM)	250 mg/L (≈ 772 µM)	250 mg/L (≈ 772 µM)	250 mg/L (≈ 772 µM)	250 mg/L (≈ 772 µM)	125 mg/L (≈ 386 µM)	–	–	–	–	–	–	–	–	–	–	–	–
COc1ccc(-n2c(-c3cccc(Cl)c3)nn(CN3CCCC3)c2=S)cc1	250 mg/L (≈ 624 µM)	250 mg/L (≈ 624 µM)	125 mg/L (≈ 312 µM)	125 mg/L (≈ 312 µM)	250 mg/L (≈ 624 µM)	125 mg/L (≈ 312 µM)	500 mg/L (≈ 1250 µM)	> 1000 mg/L	250 mg/L (≈ 624 µM)	> 1000 mg/L	500 mg/L (≈ 1250 µM)	500 mg/L (≈ 1250 µM)	500 mg/L (≈ 1250 µM)	500 mg/L (≈ 1250 µM)	250 mg/L (≈ 624 µM)	500 mg/L (≈ 1250 µM)	1000 mg/L (≈ 2490 µM)	1000 mg/L (≈ 2490 µM)
S=c1[nH]nc(-c2cccc(Cl)c2)n1-c1ccc(I)cc1	31.2 mg/L (≈ 75.5 µM)	250 mg/L (≈ 604 µM)	250 mg/L (≈ 604 µM)	250 mg/L (≈ 604 µM)	500 mg/L (≈ 1210 µM)	> 1000 mg/L	–	–	–	–	–	–	–	–	–	–	–	–
COc1ccc(NC(=S)NNC(=O)c2cccc(Cl)c2)cc1	125 mg/L (≈ 372 µM)	125 mg/L (≈ 372 µM)	125 mg/L (≈ 372 µM)	62.5 mg/L (≈ 186 µM)	125 mg/L (≈ 372 µM)	62.5 mg/L (≈ 186 µM)	–	–	–	–	–	–	–	–	–	–	–	–
S=c1[nH]nc(-c2cccc(Cl)c2)n1-c1ccc(Cl)cc1	125 mg/L (≈ 388 µM)	125 mg/L (≈ 388 µM)	125 mg/L (≈ 388 µM)	125 mg/L (≈ 388 µM)	125 mg/L (≈ 388 µM)	125 mg/L (≈ 388 µM)	–	–	–	–	–	–	–	–	–	–	–	–
O=C(NNC(=S)Nc1ccc(F)cc1)c1cccc(Cl)c1	> 1000 mg/L	> 1000 mg/L	> 1000 mg/L	> 1000 mg/L	> 1000 mg/L	> 1000 mg/L	–	–	–	–	–	–	–	–	–	–	–	–
Cc1ccc(-n2c(-c3cccc(Cl)c3)n[nH]c2=S)cc1	> 1000 mg/L	> 1000 mg/L	> 1000 mg/L	> 1000 mg/L	> 1000 mg/L	> 1000 mg/L	–	–	–	–	–	–	–	–	–	–	–	–
O=C(NNC(=S)Nc1ccc(Cl)cc1)c1cccc(Cl)c1	31.2 mg/L (≈ 91.8 µM)	31.2 mg/L (≈ 91.8 µM)	62.5 mg/L (≈ 184 µM)	31.2 mg/L (≈ 91.8 µM)	31.2 mg/L (≈ 91.8 µM)	31.2 mg/L (≈ 91.8 µM)	–	–	–	–	–	–	–	–	–	–	–	–
O=C(NNC(=S)Nc1ccccc1I)c1cccc(Cl)c1	15.6 mg/L (≈ 36.2 µM)	31.2 mg/L (≈ 72.4 µM)	31.2 mg/L (≈ 72.4 µM)	31.2 mg/L (≈ 72.4 µM)	31.2 mg/L (≈ 72.4 µM)	31.2 mg/L (≈ 72.4 µM)	–	–	–	–	–	–	–	–	–	–	–	–
CC1(C)S[C@@H]2[C@H](NC(=O)[C@H](N)c3ccccc3)C(=O)N2[C@H]1C(=O)O [AMPICILLIN]	3 mg/L (≈ 8.59 µM)	6 mg/L (≈ 17.2 µM)	62.5 mg/L (≈ 179 µM)	2 mg/L (≈ 5.72 µM)	3 mg/L (≈ 8.59 µM)	6 mg/L (≈ 17.2 µM)	–	–	–	–	–	–	–	–	–	–	–	–
Cc1ccc(NC(=S)NNC(=O)c2cccc(Cl)c2)cc1	> 1000 mg/L	> 1000 mg/L	> 1000 mg/L	62.5 mg/L (≈ 195 µM)	62.5 mg/L (≈ 195 µM)	> 1000 mg/L	–	–	–	–	–	–	–	–	–	–	–	–
Fc1ccc(F)c(-n2c(-c3cccc(Cl)c3)n[nH]c2=S)c1	1000 mg/L (≈ 3090 µM)	250 mg/L (≈ 772 µM)	1000 mg/L (≈ 3090 µM)	> 1000 mg/L	> 1000 mg/L	1000 mg/L (≈ 3090 µM)	–	–	–	–	–	–	–	–	–	–	–	–
